Measurements from ChEMBL document CHEMBL3112428, “Biological evaluation of diazene derivatives as anti-tubercular compounds” (Eur J Med Chem, 2014).
≈ marks a conversion by molar mass, not a printed value. Calls of active or inactive are those of the source. The rule behind the calls is not given here.

Key:
[1] = test system: Mycobacterium tuberculosis; assay: Antituberculosis activity against Mycobacterium tuberculosis H37Rv expressing lux gene infected in mouse J774A1 cells assessed as inhibition of bacterial replication at 3.13 ug/ml after 4 days by luminometry analysis; assay type: functional; details: J774.A1, 96 h
[2] = test system: Mycobacterium avium subsp. paratuberculosis; assay: Antituberculosis activity against Mycobacterium avium ssp. paratuberculosis ATCC 19698 expressing lux gene assessed as inhibition of bacterial replication after 6 days by luminometry analysis; assay type: functional, organism-based; details: ATCC 19698, 144 h
[3] = test system: Mycobacterium tuberculosis; assay: Antituberculosis activity against Mycobacterium tuberculosis H37Rv expressing lux gene infected in mouse J774A1 cells assessed as inhibition of bacterial replication at 1.56 ug/ml after 4 days by luminometry analysis; assay type: functional; details: J774.A1, 96 h
[4] = Cytotoxicity against mouse J774A1 cells after 24 hrs by neutral red uptake assay; assay type: cell-based; details: J774.A1, 24 h
[5] = test system: Mycobacterium tuberculosis; assay: Antituberculosis activity against Mycobacterium tuberculosis H37Rv expressing lux gene assessed as inhibition of bacterial replication after 6 days by luminometry analysis; assay type: functional, organism-based; details: 144 h
[6] = Antituberculosis activity against Mycobacterium avium ssp. avium ATCC 15769 expressing lux gene assessed as inhibition of bacterial replication after 6 days by luminometry analysis; assay type: functional, Mycobacterium avium subsp. avium
[7] = test system: Mycobacterium tuberculosis; assay: Antituberculosis activity against Mycobacterium tuberculosis H37Rv ATCC 27294 assessed as inhibition of bacterial replication after 6 days by luminometry analysis; assay type: functional, organism-based; details: H37Rv ATCC 27294, 144 h
[8] = Genotoxicity in mouse J774A1 cells assessed as ratio of genomic DNA present in tail and head at 0.1 to 10 ug/ml after 24 hrs by comet assay; assay type: toxicity, cell-based; details: j774.a1, 24 h
[9] = test system: Mycobacterium tuberculosis; assay: Antituberculosis activity against Mycobacterium tuberculosis H37Rv ATCC 27294 assessed as inhibition of bacterial replication at < 10 ug/ml after 6 days by luminometry analysis relative to control; assay type: functional
Mycobacterium ulcerans = assay: Antituberculosis activity against Mycobacterium ulcerans 1615 expressing lux gene assessed as inhibition of bacterial replication after 6 days by luminometry analysis; assay type: functional; details: Mycobacterium ulcerans, 1615, 144 h
[10] = Selectivity index, ratio of IC50 for mouse J774A1 cells to IC50 for Mycobacterium tuberculosis H37Rv expressing pSMT1; assay type: toxicity, cell-based, J774.A1; details: read-out: Ratio IC50
[11] = test system: Mycobacterium tuberculosis; assay: Antituberculosis activity against Mycobacterium tuberculosis H37Rv expressing lux gene infected in mouse J774A1 cells assessed as inhibition of bacterial replication at 0.78 to 6.25 ug/ml after 4 days by luminometry analysis; assay type: functional, organism-based; details: J774.A1
[12] = test system: Mycobacterium tuberculosis; assay: Antituberculosis activity against Mycobacterium tuberculosis H37Rv expressing lux gene infected in mouse J774A1 cells assessed as inhibition of bacterial replication at 12.5 ug/ml after 4 days by luminometry analysis; assay type: functional; details: J774.A1, 96 h

## O=C(/N=N/c1ccc(C(F)(F)F)cc1)Nc1ccccc1
[1]
  inhibition at 3.13 µg/mL: 74.4%
[2]
  IC50: 0.98 µg/mL (≈ 3.34 µM)
[3]
  inhibition at 1.56 µg/mL: 31.7%
[4]
  IC50: 7.41 µg/mL (≈ 25.3 µM)
[5]
  IC50: 0.24 µg/mL (≈ 0.818 µM)
[6]
  IC50: 1.03 µg/mL (≈ 3.51 µM)
[7]
  IC50: 0.24 µg/mL (≈ 0.818 µM)
  IC90: 5.29 µg/mL (≈ 18 µM)
  IC99: 6.24 µg/mL
[8]
  Activity: Non-toxic
[9]
  fold change (FC): 10
Mycobacterium ulcerans
  IC50: 3.78 µg/mL (≈ 12.9 µM)
[10]
  selectivity ratio: 30.2

## O=C(/N=N/c1ccc([N+](=O)[O-])cc1)Nc1ccccc1
[2]
  IC50: 3.56 µg/mL (≈ 13.2 µM)
[4]
  IC50: 14.4 µg/mL (≈ 53.2 µM)
[5]
  IC50: 2.75 µg/mL (≈ 10.2 µM)
[11]
  inhibition: inactive
[6]
  IC50: 2.98 µg/mL (≈ 11 µM)
[7]
  IC50: 2.75 µg/mL (≈ 10.2 µM)
  IC90: 6.23 µg/mL (≈ 23.1 µM)
  IC99: 16.5 µg/mL
[8]
  Activity: Non-toxic
[9]
  fold change (FC): 10
Mycobacterium ulcerans
  IC50: 5.67 µg/mL (≈ 21 µM)
[10]
  selectivity ratio: 5.23

## O=C(/N=N/C(=O)Nc1ccc(F)cc1)NCc1cccnc1
[7]
  IC50: > 50 µg/mL
  IC90: > 50 µg/mL
  IC99: > 50 µg/mL

## CCOC(=O)/N=N/C(=O)Nc1ccc(C)cc1
[2]
  IC50: 4.89 µg/mL (≈ 20.8 µM)
[12]
  inhibition at 12.5 µg/mL: 40.3%
[4]
  IC50: 20.8 µg/mL (≈ 88.2 µM)
[5]
  IC50: 2.72 µg/mL (≈ 11.6 µM)
[6]
  IC50: 3.14 µg/mL (≈ 13.3 µM)
[7]
  IC50: 2.72 µg/mL (≈ 11.6 µM)
  IC90: 4.07 µg/mL (≈ 17.3 µM)
  IC99: 7.97 µg/mL
[8]
  Activity: Non-toxic
[9]
  fold change (FC): 10
Mycobacterium ulcerans
  IC50: 7.25 µg/mL (≈ 30.8 µM)
[10]
  selectivity ratio: 7.63

## COc1ccc(/N=N/C(=O)Nc2ccccc2)cc1
[7]
  IC50: 12.1 µg/mL (≈ 47.3 µM)
  IC90: 38.4 µg/mL (≈ 150 µM)
  IC99: 42.2 µg/mL

## O=C(/N=N/C(=O)Nc1ccc(F)cc1)NCc1ccncc1
[7]
  IC50: > 50 µg/mL
  IC90: > 50 µg/mL
  IC99: > 50 µg/mL

## O=C(/N=N/c1ccc(Cl)cc1)Nc1ccccc1
[7]
  IC50: 15.6 µg/mL (≈ 59.9 µM)
  IC90: 41.4 µg/mL (≈ 159 µM)
  IC99: 49.3 µg/mL

## O=C(/N=N/C(=O)Nc1ccc(F)cc1F)NCc1ccncc1
[7]
  IC50: 33.3 µg/mL (≈ 104 µM)
  IC90: > 50 µg/mL
  IC99: > 50 µg/mL

## COC(=O)/N=N/C(=O)Nc1ccc(OC)cc1
[7]
  IC50: 14.3 µg/mL (≈ 60.4 µM)
  IC90: 32.4 µg/mL (≈ 137 µM)
  IC99: > 50 µg/mL

## O=C(/N=N/c1nccc(C(F)(F)F)n1)Nc1ccccc1
[7]
  IC50: > 50 µg/mL
  IC90: > 50 µg/mL
  IC99: > 50 µg/mL

## O=C(/N=N/C(=O)Nc1ccc(F)cc1F)NCc1cccnc1
[7]
  IC50: 38.6 µg/mL (≈ 121 µM)
  IC90: > 50 µg/mL
  IC99: > 50 µg/mL

## O=C(/N=N/c1ccc(F)cc1)Nc1ccccc1
[7]
  IC50: 45.2 µg/mL (≈ 186 µM)
  IC90: 49.2 µg/mL (≈ 202 µM)
  IC99: > 50 µg/mL

## O=C(/N=N/c1ccccn1)Nc1ccccc1
[7]
  IC50: 27.1 µg/mL (≈ 120 µM)
  IC90: 46.9 µg/mL (≈ 207 µM)
  IC99: > 50 µg/mL

## O=C(/N=N/c1c(F)c(F)c(F)c(F)c1F)Nc1ccccc1
[7]
  IC50: 24.3 µg/mL (≈ 77.1 µM)
  IC90: 45.3 µg/mL (≈ 144 µM)
  IC99: > 50 µg/mL

## NNC(=O)c1ccncc1 [ISONIAZID]
[7]
  IC50: 0.04 µg/mL (≈ 0.292 µM)
  IC90: 0.11 µg/mL (≈ 0.802 µM)
  IC99: 0.13 µg/mL

## CCOC(=O)/N=N/C(=O)Nc1ccccc1
[7]
  IC50: 17.2 µg/mL (≈ 77.8 µM)
  IC90: 33.8 µg/mL (≈ 153 µM)
  IC99: > 50 µg/mL
